In patent publication US20250195478A1, “DUAL INHIBITORS OF VISTA AND PD-1 PATHWAYS” (Aurigene Oncology Limited, priority 2016, published 2025):

Tests used:
recombinant human VISTA = molecular target: T1, recombinant human VISTA (Homo sapiens, UniProt Q9H7M9); assay: Human PBMC IFN-γ release assay in the presence of recombinant human VISTA; format: cell-based; settings: 100 nM compound, plate-coated VISTA + anti-CD3, anti-CD28, 72 h, ELISA
T1 construct: Fc (Fc chimera); purchased R&D Systems 7126-B7
T1 sequence (Q9H7M9 with tags, fused parts or gaps limits assumed): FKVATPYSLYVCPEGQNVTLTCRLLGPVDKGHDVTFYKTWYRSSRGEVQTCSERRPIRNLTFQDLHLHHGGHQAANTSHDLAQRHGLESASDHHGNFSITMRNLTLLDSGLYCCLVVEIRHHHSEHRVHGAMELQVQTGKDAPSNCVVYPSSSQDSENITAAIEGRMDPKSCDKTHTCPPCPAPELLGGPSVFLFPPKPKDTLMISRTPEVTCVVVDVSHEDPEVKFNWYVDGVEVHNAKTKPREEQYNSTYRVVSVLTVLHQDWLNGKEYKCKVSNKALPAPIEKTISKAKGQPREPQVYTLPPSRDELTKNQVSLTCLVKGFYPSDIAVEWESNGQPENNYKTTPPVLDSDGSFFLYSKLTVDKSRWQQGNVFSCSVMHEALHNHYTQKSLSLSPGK
Experimental: Example 2: Rescue of Mouse Splenocyte Proliferation in the Presence of Recombinant VISTA
Vehicle: Milli Q water; RPMI 1640 (GIBCO, Cat #11875); Fetal Bovine Serum [Hyclone, Cat #SH30071.03]; Penicilin (10000 unit/ml)-Streptomycin (10,000 μg/ml) liquid (GIBCO, Cat #15140-122); MEM Sodium Pyruvate solution 100 mM (100×), Liquid (GIBCO, Cat #11360); Nonessential amino acid (GIBCO, Cat #11140); L-Glutamine (GIBCO, Cat #25030); Recombinant human VISTA (rhGi24 VISTA/B7-H5 Fc chimera (R&D systems, cat no: 7126-B7); Anti-h/m Gi24/VISTA/B7-H5 purified mouse monoclonal IgG2B (R&D systems, cat no: MAB7126); Mouse IgG2B isotype control (R&D Systems cat no: MAB 004); Anti human-CD3 antibody (eBiosciences-16-0039); Anti human-CD28 antibody (eBiosciences-16-0289); Histopaque (density-1.077 gm/ml) (SIGMA 1077); Trypan Blue solution (SIGMA-T8154); Hemacytometer (Bright line-SIGMA Z359629); FACS Buffer containing Phosphate Buffered Saline (PBS) pH 7.2; (HiMedia TS1006) with 0.1% Bovine Serum Albumin (BSA) (SIGMA A7050) and sodium azide (SIGMA 08591); 96-well format ELISA plates (Corning 3599); 96-well format ELISA plates (Corning 3361); BD FACS caliber (E6016); Centrifuge (Eppendorf 5810 R); Human IFN-γ Duo set ELISA kit (R&D Systems; cat no: DY-285).
96-well cell culture plates were pre-coated with recombinant human VISTA (2.5 μg/ml) and anti-human CD3 (2.5 μg/ml), and stored at 4° C. overnight. Anti-human VISTA and isotype control antibodies were either coated along with the VISTA or incubated for 30 min next day before addition of cells. On the next day, plates were washed with 1×PBS and then incubated with test compounds for 30 min. Isolated PBMC (0.1×10^6 cells/well) and anti-human CD28 antibodies (lug/ml) were added to the wells. The culture was further incubated for 72 h at 37° C. with 5% CO2. After 72 h of incubation the cell culture supernatants were collected after brief centrifugation at 200 g×5 min at 4° C. and processed for human IFN-γ measurement by ELISA following manufacturer's protocol (R&D Systems; DY-285).
In brief, 96-well ELISA plates were coated with 100 μl/well of capture antibody in coating buffer and incubated overnight at 4° C. Plates were washed five times with wash buffer and further blocked with 200 μl of 1× assay diluents for 1 hr at RT. Following wash step, 100 μl of cell culture supernatants were added to wells and further incubated for 2 hr at RT. Appropriate standards were also included. After wash step, plate was incubated for one hour with 100 μl/well of detection antibody. The wash step was repeated and the plate was incubated for 30 min with 100 μl/well of Avidin-HRP. The plate was washed four times with wash buffer and subsequently incubated for 15 min with 100 μl/well of substrate solution. 50 μl of stop solution was added to each well and the plate was read at 450 nm using Gen5 ver 2.05. Delta OD values were used for calculating the concentrations. The absorbance values were plotted against the standards and the concentration of IFN-γ was determined using GraphPad Prism software. Each experimental condition was carried out in triplicates.
The percent rescue of IFN-γ release of the selected compounds of present invention are set forth below wherein “A” refers to compounds having more than 70% rescue of IFN-γ release, “B” refers to compounds having rescue of IFN-γ release ranges from 50% to 69.9% and “C” refers to compounds having less than 50% rescue of IFN-γ release.

Recombinant mouse PD-L1 = molecular target: T2, Recombinant mouse PD-L1 (Mus musculus, UniProt Q9EP73); assay: Rescue of mouse splenocyte proliferation in the presence of recombinant PD-L1 (CFSE proliferation assay); format: cell-based; settings: 100 nM compound; anti-CD3/CD28 stimulated mouse splenocytes + PD-L1; 72 h; stimulated splenocytes = 100%; read-out: PDL1 (rescue of proliferation @ 100 nM)
T2 construct: Fc (Fc chimera); purchased R&D Systems 1019-B7-100
T2 sequence (Q9EP73 19-238 limits assumed): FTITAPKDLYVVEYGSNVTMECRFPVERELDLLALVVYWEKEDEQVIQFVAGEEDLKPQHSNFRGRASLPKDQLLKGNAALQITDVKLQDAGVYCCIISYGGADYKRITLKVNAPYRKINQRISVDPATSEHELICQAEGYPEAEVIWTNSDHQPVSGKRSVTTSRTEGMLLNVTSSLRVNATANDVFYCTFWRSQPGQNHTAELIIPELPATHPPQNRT
Experimental: Example 1: Rescue of Mouse Splenocyte Proliferation in the Presence of Recombinant PD-L1/PD-L2
Recombinant mouse PD-L1 (rm-PDL-1, cat no: 1019-B7-100; R&D Systems) were used as the source of PD-L1.
Mouse splenocytes harvested from 6-8 weeks old C57 BL6 mice; RPMI 1640 (GIBCO, Cat #11875); DMEM with high glucose (GIBCO, Cat #D6429); Fetal Bovine Serum [Hyclone, Cat #SH30071.03]; Penicillin (10000unit/mL)-Streptomycin (10,000 μg/mL) Liquid (GIBCO, Cat #15140-122); MEM Sodium Pyruvate solution 100 mM (100×), Liquid (GIBCO, Cat #11360); Nonessential amino acid (GIBCO, Cat #11140); L-Glutamine (GIBCO, Cat #25030); Anti-CD3 antibody (eBiosciences-16-0032); Anti-CD28 antibody (eBiosciences-16-0281); ACK lysis buffer (1mL) (GIBCO, Cat #-A10492); Histopaque (density-1.083 gm/mL) (SIGMA 10831); Trypan blue solution (SIGMA-T8154); 2 mL Norm Ject Luer Lock syringe-(Sigma 2014-12); 40 μm nylon cell strainer (BD FALCON 35230); Hemacytometer (Bright line-SIGMA Z359629); FACS Buffer (PBS/0.1% BSA): Phosphate Buffered Saline (PBS) pH 7.2 (HiMedia TS1006) with 0.1% Bovine Serum Albumin (BSA) (SIGMA A7050) and sodium azide (SIGMA 08591); 5 mM stock solution of CFSE: CFSE stock solution was prepared by diluting lyophilized CFSE with 180 μL of Dimethyl sulfoxide (DMSO C2H6SO, SIGMA-D-5879) and aliquoted in to tubes for further use. Working concentrations were titrated from 10 μM to 1 μM. (eBioscience-650850-85); 0.05% Trypsin and 0.02% EDTA (SIGMA 59417C); 96-well format ELISA plates (Corning CLS3390); BD FACS caliber (E6016);
Recombinant mouse B7-H1/PDL1 Fc Chimera, (rm-PD-L1 cat no: 1019-B7-100).
Splenocytes harvested in a 50 mL falcon tube by mashing mouse spleen in a 40 μm cell strainer were further treated with 1 mL ACK lysis buffer for 5 min at room temperature.
After washing with 9 mL of RPMI complete media, cells were re-suspended in 3 mL of 1×PBS in a 15 mL tube. 3 mL of Histopaque was added carefully to the bottom of the tube without disturbing overlaying splenocyte suspension. After centrifuging at 800×g for 20 min at room temperature, the opaque layer of splenocytes was collected carefully without disturbing/mixing the layers. Splenocytes were washed twice with cold 1×PBS followed by total cell counting using Trypan Blue exclusion method and used further for cell based assays.
Splenocytes were cultured in RPMI complete media (RPMI +10% fetal bovine serum+1 mM sodium pyruvate+10,000units/mL penicillin and 10,000 μg/mL streptomycin) and maintained in a CO2 incubator with 5% CO2 at 37° C.
CFSE is a dye that passively diffuses into cells and binds to intracellular proteins. 1×10^6 cells/mL of harvested splenocytes were treated with 5 μM of CFSE in pre-warmed 1×PBS/0.1% BSA solution for 10 min at 37° C. Excess CFSE was quenched using 5 volumes of ice-cold culture media to the cells and incubated on ice for 5 min. CFSE labelled splenocytes were further given three washes with ice cold complete RPMI media. CFSE labelled 1×10^5 splenocytes added to wells containing either MDA-MB231 cells (1×10^5 cells cultured in high glucose DMEM medium) or recombinant […] PDL-1 (100 ng/mL) and test compounds. Splenocytes were stimulated with anti-mouse CD3 and anti-mouse CD28 antibody (lug/mL each), and the culture was further incubated for 72 h at 37° C. with 5% CO2. Cells were harvested and washed thrice with ice cold FACS buffer and % proliferation was analysed by flow cytometry with 488 nm excitation and 521 nm emission filters.
Percent splenocyte proliferation was analysed using cell quest FACS program and percent rescue of splenocyte proliferation by compound was estimated after deduction of % background proliferation value and normalising to % stimulated splenocyte proliferation (positive control) as 100%.
Stimulated splenocytes: Splenocytes+anti-CD3/CD28 stimulation
Background proliferation: Splenocytes+anti-CD3/CD28+PD-L1
Compound proliferation: Splenocytes+anti-CD3/CD28+PD-L1+Compound […]

Row | Structure (SMILES) | activation at 0.1 µM (Recombinant mouse PD-L1) [%] | VISTA (rescue of IFN γ release @ 100 nM) (recombinant human VISTA)
1 | CC(O)[C@H](NC(=O)N[C@@H](CC(N)=O)c1nc(C2(N)CCCCC2)no1)C(=O)O (stereo partly shown) [Compound 19] | 86 | B (rescue of IFN-γ release ranges from 50% to 69.9%)
2 | CC(O)[C@H](NC(=O)N[C@@H](CC(N)=O)c1nc([C@H](N)CO)no1)C(=O)O (stereo partly shown) [Compound 21] | 64 | A (more than 70% rescue of IFN-γ release)
3 | CC(O)[C@@H](NC(=O)N[C@H](CC(N)=O)c1nc([C@H](N)CO)no1)C(=O)O (stereo partly shown) [Compound 22] | 83 | A (more than 70% rescue of IFN-γ release)

Continued, in another order:

Row | activation at 0.1 µM (Recombinant mouse PD-L1) [%] | Structure (SMILES) | VISTA (rescue of IFN γ release @ 100 nM) (recombinant human VISTA)
4 | 72 | CC(O)[C@@H](NC(=O)N[C@@H](CC(N)=O)c1nc([C@H](N)CO)no1)C(=O)O (stereo partly shown) [Compound 23] | A (more than 70% rescue of IFN-γ release)
5 | 55 | CC(O)[C@H](NC(=O)N[C@H](CC(N)=O)c1nc([C@H](N)CO)no1)C(=O)O (stereo partly shown) [Compound 24] | A (more than 70% rescue of IFN-γ release)
